Assay [1] is described as follows: Compound was tested for the inhibition of inducible murine macrophage nitric oxide(NO) synthase.
Assay [2] in a line: Compound was tested for the inhibition of inducible murine macrophage nitric oxide(NO) synthase, activity expressed as inhibitory constant.
The nature of assay [3]: Compound was tested for the inhibition of inducible murine macrophage expressed as inactivation constant.

As usually defined, the Ki is a measure of affinity in units of concentration, obtained from inhibition or displacement. In assay [1], `N=C(NCCC[C@H](N)C(=O)O)NC1CC1` displayed an inhibition constant (Ki) of 7.7 µM.
For the compound `C=CC/N=C(/N)NCCC[C@H](N)C(=O)O` [5-N-ALLYL-ARGININE], the Ki in assay [2] came to 3.4 µM; in assay [1], 2.1 µM. This compound also came in with a K inact in assay [3] of 0.026 min⁻¹.
Take `CNC(=N)NCCC[C@H](N)C(=O)O` [TILARGININE]: the Ki in assay [2] came out at 4.2 µM. Also, the K inact in assay [3] amounted to 0.05 min⁻¹.
